Source: ChEMBL document CHEMBL3875181, “Recent discovery of non-nucleobase thymidine phosphorylase inhibitors targeting cancer” (Eur J Med Chem, 2016)

Experiments:
[1] = target: T1, Thymidine phosphorylase (Escherichia coli K-12, UniProt P07650); assay: Inhibition of Escherichia coli K12 thymidine phosphorylase expressed in Escherichia coli preincubated for 10 mins followed by substrate addition measured up to 30 mins by spectrophotometric method
[2] = target: T1, Thymidine phosphorylase; assay: Inhibition of Escherichia coli K12 thymidine phosphorylase expressed in Escherichia coli using thymidine as substrate addition measured up to 20 mins by Uv-vis spectrophotometric method
[3] = Inhibition of Escherichia coli thymidine phosphorylase expressed in Escherichia coli preincubated for 10 mins followed by thymidine substrate addition measured for 10 mins by spectrophotometric method
[4] = Non-competitive inhibition of Escherichia coli thymidine phosphorylase expressed in Escherichia coli preincubated for 10 mins followed by varying levels of thymidine substrate addition by Lineweaver-Burk plot analysis
[5] = target: Thymidine phosphorylase (Escherichia coli K-12) (UniProt P07650); assay: Potency index, ratio of 7-DX IC50 to compound IC50 for Escherichia coli K12 thymidine phosphorylase expressed in Escherichia coli
[6] = target: T2, Thymidine phosphorylase (Homo sapiens, UniProt P19971); assay: Inhibition of human thymidine phosphorylase using thymidine as substrate preincubated for 30 mins followed substrate addition measured up to 30 mins
T2 sequence (P19971 whole entry): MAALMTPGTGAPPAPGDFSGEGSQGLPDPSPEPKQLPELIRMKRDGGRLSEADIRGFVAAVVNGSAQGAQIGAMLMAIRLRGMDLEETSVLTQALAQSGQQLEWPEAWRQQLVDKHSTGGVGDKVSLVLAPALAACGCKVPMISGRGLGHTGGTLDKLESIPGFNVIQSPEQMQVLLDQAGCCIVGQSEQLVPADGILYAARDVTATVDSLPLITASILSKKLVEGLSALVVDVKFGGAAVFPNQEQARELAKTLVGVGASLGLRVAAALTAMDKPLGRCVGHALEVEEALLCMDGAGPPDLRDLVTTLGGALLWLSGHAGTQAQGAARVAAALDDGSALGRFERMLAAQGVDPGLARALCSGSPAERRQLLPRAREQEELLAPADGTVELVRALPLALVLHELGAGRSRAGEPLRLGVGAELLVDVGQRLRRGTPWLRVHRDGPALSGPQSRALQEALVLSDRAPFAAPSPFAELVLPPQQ

T1 sequence (P07650 whole entry): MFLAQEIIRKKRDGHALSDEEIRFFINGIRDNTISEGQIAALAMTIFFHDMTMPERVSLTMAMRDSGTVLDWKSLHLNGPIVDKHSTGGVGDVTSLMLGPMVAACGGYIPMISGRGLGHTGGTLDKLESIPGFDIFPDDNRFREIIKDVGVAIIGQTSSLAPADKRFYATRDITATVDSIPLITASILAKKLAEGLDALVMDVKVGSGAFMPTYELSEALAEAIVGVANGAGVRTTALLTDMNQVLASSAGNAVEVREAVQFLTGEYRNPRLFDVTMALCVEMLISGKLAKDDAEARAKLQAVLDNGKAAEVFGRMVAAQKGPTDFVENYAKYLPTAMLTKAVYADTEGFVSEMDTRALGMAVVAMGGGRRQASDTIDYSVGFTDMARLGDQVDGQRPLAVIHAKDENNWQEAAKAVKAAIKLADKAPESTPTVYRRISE
Thymidine phosphorylase (Escherichia coli K-12), sequence (P07650 whole entry, looked up): as the sequence (P07650 whole entry) above

Compound: Oc1ccc(-c2nnc(S)o2)cc1
- IC50 [1]: 38.2 µM

Compound: O=c1[nH]c(SCc2ccccc2)nc2nc(-c3ccccc3)nn12
- IC50 [2]: 111 µM

Compound: O=c1[nH]c(-c2ccc(O)c(O)c2)nc2ccccc12
- IC50 [3]: 42.9 µM
- Ki [4]: 52.3 µM

Compound: Oc1cc(O)c(/C=N/Nc2cnc3ccccc3n2)cc1O
- Ratio IC50 [5]: 12
- IC50 [1]: 3.2 µM

Compound: O=C(OCc1cc(O)ccc1O[C@@H]1O[C@H](CO)[C@@H](O)[C@@H](OC(=O)c2ccc(O)cc2)[C@H]1O)c1ccccc1
- IC50 [6]: 226 µM
